Experiments:
DUNE cells = assay: Colony formation assay, DUNE cells; assay type: cell-based; details: 20 uM (Figure 7C)
Protocol: There are several standard molecular techniques, including real-time qPCR, flow cytometry, cell proliferation, colony formation, and immunoblotting assays, that have been reported previously by our lab.
Figure 7 Lin28 inhibitors block CSC phenotypes of cancer cells. (A) FACS analysis using CD44 and CD133 antibodies detected CSC cell populations from DUNE or DUNE (KO) cells treated with either vehicle or 20 uM of Ln7, Ln15, and Ln115 for 48 h. (B) DUNE, DUNE (KO), and IGROV1 cell proliferation were measured in the presence of 20 uM of Ln7, Ln15, and Ln115. (C) Colony formation assays (colonies >[…] were counted) measured the suppressive effects of Ln7, Ln15, and Ln115 at the concentration of 20 uM. p-value ≤ 0.01—(**); ≤0.001—(***).
Figure S4. A. Colony formation assays: DUNE cells were seeded in 500 cells/well. Chemicals were added one day after cell seeding (n=3 wells/chemical). Medium with chemical at the concentration of 60uM was changed every four days for 14 days. […]
0.005% crystal violet staining for 2 hours. ImageJ was used to analyze colony size and numbers (circularity was set at 0.5 -1, which is equivalent to 50uM in size). Only colonies larger than […]
50uM were countered. […]
(1 picture or pasted object on this page, not shown here)

Lin28B ZKD = molecular target: T1, Lin28B ZKD (Homo sapiens, UniProt Q6ZN17); assay: Bio-layer interferometry (BLI) with Avi-tagged Lin28B ZKD; assay type: binding; details: for BLI binding to Lin28 ZKD: up to 100 µM
T1 construct: His-tagged human Lin28B ZKD (aa110-174); His-tag; made in house; host or cells: Escherichia coli BL21
T1 sequence (Q6ZN17 110-174): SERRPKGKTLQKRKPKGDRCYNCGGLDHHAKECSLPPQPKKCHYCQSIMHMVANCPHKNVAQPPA
Protocol: BLI assays were performed as we previously reported to quantify the direct and reversible interactions between small molecules and Lin28B ZKD by using OctetRED (ForteBio, Bohemia, NY, USA). Lin28B was thus expressed with His-tag and a biotinylated AviTag sequence ([…]) at its N-terminus in Escherichia coli BL21 cells. Purified Lin28B ZKD (50 ug/mL) was bound to the super-streptavidin sensors for 1 h at room temperature. Sensors were next blocked with biocytin, washed, and then dipped into wells containing increasing concentrations of the tested inhibitors in assay buffer (20 mM N-2-hydroxyethylpiperazine-N0-2-ethanesulfonic acid (HEPES), 150 mM NaCl, 500 uM tris(2-carboxyethyl) phosphine (TCEP), and 1% dimethylsulfoxide (DMSO)). Association for 200 s and dissociation in assay buffer for 100 s were recorded for each well. Data analysis was done using the OctetRED software (ForteBio, Bohemia, NY, USA).
Figure 3 Lin28 inhibitors block the interaction between Lin28B ZKD and Let-7. (A) EMSA used 10 nM of IR800DyeCWN-labeled let-7 probe (lane 1), 0.5 uM Lin28B ZKD protein with 10 nM of labeled Let-7 probe (lane 2), or Lin28B ZKD, labeled Let-7 probe and 100× non-labelled competitor probe (lane 3). EMSA used Lin28B ZKD, labeled Let-7 probe, and 100–1200 uM of indicated compounds (lanes 4–10). (B) FP assays were performed by using 10 uM of Lin28B ZKD and 1 nM of FAM-labeled Let-7 probe and 1 nM–1000 uM of compounds. (C) Bio-layer interferometry (BLI) assays were performed using 0–25 uM of Ln115 with Avi-tagged Lin28B ZKD protein. (D) Chemical structures of the three lead compounds were shown.
To validate that these molecules indeed directly bind to the ZKD domain of Lin28 in a reversible and dose-dependent manner, we used the biolayer interferometry (BLI) assay. Biotinylated Avi-tagged Lin28 ZKD was immobilized onto streptavidin biosensors. The sensor plates were then dipped in successive wells containing increasing concentrations of Ln7, Ln 15, or Ln115. […]

Row | BLI binding to Lin28 ZKD (Lin28B ZKD) | Kd (Lin28B ZKD; 0–25 uM Ln115, Avi-tagged Lin28B ZKD, read-out: estimated KD (BLI)) [µM] | Structure (SMILES) | formation of cancer cell colonies (DUNE cells) | suppressive effect on colony formation (DUNE cells; colonies >50 uM counted)
1 | did not show any binding | – | CCc1cc(=O)[nH]c(Nc2cc(Cl)ccc2O)n1 [Ln7] | strongly suppressed | –
2 | non-specific binding to the sensors | – | O=c1[nH]c(Nc2ccccc2O)cs1 [Ln15] | strongly suppressed | ~ 90%
3 | – | 60 ± 4 | O=c1cccc(-c2nc3cc(F)c(O)cc3c(=O)[nH]2)[nH]1 [Ln115] | strongly suppressed | –

More lines, now with the values behind:

Row | Structure (SMILES) | BLI binding to Lin28 ZKD (Lin28B ZKD) | Kd (Lin28B ZKD; 0–25 uM Ln115, Avi-tagged Lin28B ZKD, read-out: estimated KD (BLI)) [µM] | formation of cancer cell colonies (DUNE cells) | suppressive effect on colony formation (DUNE cells; colonies >50 uM counted)
4 | CCOc1cccc2c1N[C@@H](c1ccc(C(=O)O)cc1)[C@H]1CC=C[C@@H]21 [Li71, reference compound] | – | – | strongly suppressed | –
5 | CC(=O)N(C)c1cccc(-c2ccc3nnc(C)n3n2)c1 [compound 1632, reference compound] | – | – | strongly suppressed | –

— article PMC9688808, “Discovery of Novel Lin28 Inhibitors to Suppress Cancer Cell Stemness” (Cancers, 2022)
